Legend:
[1] = test system: Italian ryegrass; test: Test A postemergence; assay type: in vivo, Lolium multiflorum; conditions: for Plant response rating, Ryegrass, Italian: 0 to 100 scale, 0 no effect, 100 complete control; for Ryegrass, Italian plant response rating: 125 g ai/ha, 0 to 100 scale where 0 is no effect and 100 is complete control
In short: (§1)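 Greenhouse pot test, loam/sand soil. Formulation: non-phytotoxic solvent mix plus surfactant. Pre: directed spray onto soil after sowing. Post: plants at 1–2 leaf, 2–10 cm. Rated visually vs untreated controls at ~10 d, 0 (no effect) to 100 (complete control).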

[2] = test system: pigweed; test: Test A postemergence; assay type: in vivo, Amaranthus retroflexus; conditions: for Plant response rating, Pigweed: 0 to 100 scale, 0 no effect, 100 complete control; for Pigweed plant response rating: 125 g ai/ha, 0 to 100 scale where 0 is no effect and 100 is complete control
In short: as §1

[3] = test system: wheat; test: Test A postemergence; assay type: in vivo, Triticum aestivum; conditions: for Plant response rating, Wheat: 0 to 100 scale, 0 no effect, 100 complete control; for Wheat plant response rating: 125 g ai/ha, 0 to 100 scale where 0 is no effect and 100 is complete control
In short: as §1

[4] = test system: corn; test: Test A postemergence; assay type: in vivo, Zea mays; conditions: for Plant response rating, Corn: 0 to 100 scale, 0 no effect, 100 complete control; for Corn plant response rating: 125 g ai/ha, 0 to 100 scale where 0 is no effect and 100 is complete control
In short: as §1

[5] = test system: galium; test: Test A postemergence; assay type: in vivo, Galium aparine; conditions: for Plant response rating, Galium: 0 to 100 scale, 0 no effect, 100 complete control; for Galium plant response rating: 125 g ai/ha, 0 to 100 scale where 0 is no effect and 100 is complete control
In short: as §1

[6] = test system: rice; test: Test B flooded paddy test; assay type: in vivo, Oryza sativa; conditions: Flood, 250 g ai/ha; 0 to 100 scale where 0 is no effect and 100 is complete control
In short: (§2)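 Greenhouse flooded-pot test: compounds dosed into 3 cm standing water over 2-leaf plants, flood held constant. Rated visually after 13–15 days on 0–100 (complete control = 100); a dash marks no test result.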

[7] = test system: barnyardgrass; test: Test A postemergence; assay type: in vivo, Echinochloa crus-galli; conditions: for Plant response rating, Barnyardgrass: 0 to 100 scale, 0 no effect, 100 complete control; for Barnyardgrass plant response rating: 125 g ai/ha, 0 to 100 scale where 0 is no effect and 100 is complete control
In short: as §1

[8] = test system: barnyardgrass; test: Test B flooded paddy test; assay type: in vivo, Echinochloa crus-galli; conditions: Flood, 250 g ai/ha; 0 to 100 scale where 0 is no effect and 100 is complete control
In short: as §2

[9] = test system: Heteranthera limosa; test: Test B flooded paddy test; assay type: in vivo; conditions: Flood, 250 g ai/ha; 0 to 100 scale where 0 is no effect and 100 is complete control
In short: as §2

[10] = test system: Italian ryegrass; test: Test A preemergence; assay type: in vivo, Lolium multiflorum; conditions: for Plant response rating, Ryegrass, Italian: 0 to 100 scale where 0 is no effect and 100 is complete control
In short: as §1

[11] = test system: sedge, umbrella; test: Test B flooded paddy test; assay type: in vivo, Cyperus difformis; conditions: Flood, 250 g ai/ha; 0 to 100 scale where 0 is no effect and 100 is complete control
In short: as §2

[12] = test system: ragweed; test: Test A preemergence; assay type: in vivo, Ambrosia elatior; conditions: for Plant response rating, Ragweed: 0 to 100 scale where 0 is no effect and 100 is complete control
In short: as §1

[13] = test system: blackgrass; test: Test A postemergence; assay type: in vivo, Alopecurus myosuroides; conditions: for Plant response rating, Blackgrass: 0 to 100 scale, 0 no effect, 100 complete control; for Blackgrass plant response rating: 125 g ai/ha, 0 to 100 scale where 0 is no effect and 100 is complete control
In short: as §1

[14] = test system: kochia; test: Test A preemergence; assay type: in vivo, Kochia scoparia; conditions: for Plant response rating, Kochia: 0 to 100 scale where 0 is no effect and 100 is complete control
In short: as §1

[15] = test system: giant foxtail; test: Test A postemergence; assay type: in vivo, Setaria faberii; conditions: for Plant response rating, Foxtail, Giant: 0 to 100 scale, 0 no effect, 100 complete control; for Foxtail, Giant plant response rating: 125 g ai/ha, 0 to 100 scale where 0 is no effect and 100 is complete control
In short: as §1

[16] = test system: barnyardgrass; test: Test A preemergence; assay type: in vivo, Echinochloa crus-galli; conditions: for Plant response rating, Barnyardgrass: 0 to 100 scale where 0 is no effect and 100 is complete control
In short: as §1

[17] = test system: pigweed; test: Test A preemergence; assay type: in vivo, Amaranthus retroflexus; conditions: for Plant response rating, Pigweed: 0 to 100 scale where 0 is no effect and 100 is complete control
In short: as §1

[18] = test system: ragweed; test: Test A postemergence; assay type: in vivo, Ambrosia elatior; conditions: for Plant response rating, Ragweed: 0 to 100 scale, 0 no effect, 100 complete control; for Ragweed plant response rating: 125 g ai/ha, 0 to 100 scale where 0 is no effect and 100 is complete control
In short: as §1

[19] = test system: kochia; test: Test A postemergence; assay type: in vivo, Kochia scoparia; conditions: for Plant response rating, Kochia: 0 to 100 scale, 0 no effect, 100 complete control; for Kochia plant response rating: 125 g ai/ha, 0 to 100 scale where 0 is no effect and 100 is complete control
In short: as §1

[20] = test system: giant foxtail; test: Test A preemergence; assay type: in vivo, Setaria faberii; conditions: for Plant response rating, Foxtail, Giant: 0 to 100 scale where 0 is no effect and 100 is complete control
In short: as §1

[21] = 31 g ai/ha, visual, approximately 10 days
[22] = 1000 g ai/ha, 0 to 100 scale, 0 no effect, 100 complete control, approx. 10 days

CC(C)Oc1cnn(-c2c(Br)cccc2Oc2ncc(F)cn2)c1 [Compound 156]
Plant response rating, Ryegrass, Italian ([1]; 31 g ai/ha): 0 | Ryegrass, Italian plant response rating [1]: 0 | Plant response rating, Pigweed ([2]; 31 g ai/ha): 10 | Pigweed plant response rating [2]: 20 | Plant response rating, Wheat ([3]; 31 g ai/ha): 0 | Wheat plant response rating [3]: 0 | Plant response rating, Corn ([4]; 31 g ai/ha): 0 | Corn plant response rating [4]: 10 | Plant response rating, Galium ([5]; 31 g ai/ha): 20 | Galium plant response rating [5]: 30 | Plant response rating, Rice [6]: 0 | Plant response rating, Barnyardgrass ([7]; 31 g ai/ha): 0 | Barnyardgrass plant response rating [7]: 10 | Plant response rating, Barnyardgrass [8]: 0 | Plant response rating, Ducksalad [9]: 0 | Plant response rating, Ryegrass, Italian [10, 21]: 0 | Plant response rating, Ryegrass, Italian ([10]; 125 g ai/ha): 0 | Plant response rating, Sedge, Umbrella [11]: 0 | Plant response rating, Ragweed [12, 21]: 0 | Plant response rating, Ragweed ([12]; 125 g ai/ha): 0 | Plant response rating, Blackgrass ([13]; 31 g ai/ha): 0 | Blackgrass plant response rating [13]: 20 | Plant response rating, Kochia [14, 21]: 0 | Plant response rating, Kochia ([14]; 125 g ai/ha): 10 | Plant response rating, Foxtail, Giant ([15]; 31 g ai/ha): 0 | Foxtail, Giant plant response rating [15]: 10 | Plant response rating, Barnyardgrass [16, 21]: 0 | Plant response rating, Barnyardgrass ([16]; 125 g ai/ha): 30 | Plant response rating, Pigweed [17, 21]: 0 | Plant response rating, Pigweed ([17]; 125 g ai/ha): 0 | Plant response rating, Ragweed ([18]; 31 g ai/ha): 0 | Ragweed plant response rating [18]: 40 | Plant response rating, Kochia ([19]; 31 g ai/ha): 0 | Kochia plant response rating [19]: 40 | Plant response rating, Foxtail, Giant [20, 21]: 0 | Plant response rating, Foxtail, Giant ([20]; 125 g ai/ha): 70

CC(C)Oc1cnn(-c2c(C#N)cccc2Oc2ncc(F)cn2)c1 [Compound 158]
Plant response rating, Ryegrass, Italian ([1]; 31 g ai/ha): 20 | Ryegrass, Italian plant response rating [1]: 50 | Plant response rating, Pigweed ([2]; 31 g ai/ha): 40 | Pigweed plant response rating [2]: 50 | Plant response rating, Wheat ([3]; 31 g ai/ha): 0 | Wheat plant response rating [3]: 0 | Plant response rating, Corn ([4]; 31 g ai/ha): 0 | Corn plant response rating [4]: 30 | Plant response rating, Galium ([5]; 31 g ai/ha): 60 | Galium plant response rating [5]: 100 | Plant response rating, Rice [6]: 40 | Plant response rating, Barnyardgrass ([7]; 31 g ai/ha): 20 | Barnyardgrass plant response rating [7]: 80 | Plant response rating, Barnyardgrass [8]: 0 | Plant response rating, Ducksalad [9]: 50 | Plant response rating, Ryegrass, Italian [10, 21]: 30 | Plant response rating, Ryegrass, Italian ([10]; 125 g ai/ha): 50 | Plant response rating, Sedge, Umbrella [11]: 0 | Plant response rating, Ragweed [12, 21]: 40 | Plant response rating, Ragweed ([12]; 125 g ai/ha): 80 | Plant response rating, Blackgrass ([13]; 31 g ai/ha): 50 | Blackgrass plant response rating [13]: 60 | Plant response rating, Kochia [14, 21]: 50 | Plant response rating, Kochia ([14]; 125 g ai/ha): 70 | Plant response rating, Foxtail, Giant ([15]; 31 g ai/ha): 20 | Foxtail, Giant plant response rating [15]: 70 | Plant response rating, Barnyardgrass [16, 21]: 10 | Plant response rating, Barnyardgrass ([16]; 125 g ai/ha): 70 | Plant response rating, Pigweed [17, 21]: 50 | Plant response rating, Pigweed ([17]; 125 g ai/ha): 70 | Plant response rating, Ragweed ([18]; 31 g ai/ha): 60 | Ragweed plant response rating [18]: 80 | Plant response rating, Kochia ([19]; 31 g ai/ha): 60 | Kochia plant response rating [19]: 80 | Plant response rating, Foxtail, Giant [20, 21]: 60 | Plant response rating, Foxtail, Giant ([20]; 125 g ai/ha): 90

Fc1cccc(Oc2ncc(Cl)cn2)c1-n1ccnn1 [Compound 159]
Plant response rating, Ryegrass, Italian ([1]; 1000 g ai/ha): 30 | Plant response rating, Pigweed ([2]; 1000 g ai/ha): 100 | Plant response rating, Wheat ([3]; 1000 g ai/ha): 30 | Plant response rating, Corn ([4]; 1000 g ai/ha): 40 | Plant response rating, Galium ([5]; 1000 g ai/ha): 90 | Plant response rating, Rice [6]: 0 | Plant response rating, Barnyardgrass ([7]; 1000 g ai/ha): 70 | Plant response rating, Barnyardgrass [8]: 0 | Plant response rating, Ducksalad [9]: 0 | Ryegrass, Italian plant response rating [10, 22]: 30 | Plant response rating, Sedge, Umbrella [11]: 0 | Ragweed plant response rating [12, 22]: 100 | Plant response rating, Blackgrass ([13]; 1000 g ai/ha): 50 | Kochia plant response rating [14, 22]: 100 | Plant response rating, Foxtail, Giant ([15]; 1000 g ai/ha): 90 | Barnyardgrass plant response rating [16, 22]: 100 | Pigweed plant response rating [17, 22]: 100 | Plant response rating, Ragweed ([18]; 1000 g ai/ha): 80 | Plant response rating, Kochia ([19]; 1000 g ai/ha): 100 | Foxtail, Giant plant response rating [20, 22]: 100
